Each molecule was assayed against human nCDase (extracellular region, residues 99–780) (Homo sapiens, UniProt Q9NR71) (assay: RBM biochemical nCDase enzymatic activity assay). Conditions: qualitative; data not shown for valproate, anacardamate, MG149.
human nCDase (extracellular region, residues 99–780), sequence (Q9NR71 99-780): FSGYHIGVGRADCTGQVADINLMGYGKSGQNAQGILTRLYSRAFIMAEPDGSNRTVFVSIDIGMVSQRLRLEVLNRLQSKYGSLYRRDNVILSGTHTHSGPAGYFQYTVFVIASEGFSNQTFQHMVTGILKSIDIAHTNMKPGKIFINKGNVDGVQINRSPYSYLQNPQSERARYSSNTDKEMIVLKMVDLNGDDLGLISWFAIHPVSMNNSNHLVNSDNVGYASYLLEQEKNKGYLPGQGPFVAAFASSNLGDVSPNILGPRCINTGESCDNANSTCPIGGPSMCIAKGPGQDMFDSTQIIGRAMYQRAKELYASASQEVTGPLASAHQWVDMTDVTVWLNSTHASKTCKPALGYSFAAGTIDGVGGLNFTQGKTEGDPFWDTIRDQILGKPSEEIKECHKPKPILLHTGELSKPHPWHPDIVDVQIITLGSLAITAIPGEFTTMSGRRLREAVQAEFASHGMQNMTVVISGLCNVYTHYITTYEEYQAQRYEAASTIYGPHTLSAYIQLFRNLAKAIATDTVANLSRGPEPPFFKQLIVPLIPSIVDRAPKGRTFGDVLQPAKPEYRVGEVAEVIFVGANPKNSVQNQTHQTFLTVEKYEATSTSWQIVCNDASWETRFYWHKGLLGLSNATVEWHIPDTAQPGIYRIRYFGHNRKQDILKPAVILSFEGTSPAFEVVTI

| nCDase inhibitory activity (in words) | Molecule |
| --- | --- |
| exhibited nCDase inhibitory activity | CCCCCCCc1ccc(CCc2cccc(O)c2C(=O)O)cc1 [MG149] |
| exhibited nCDase inhibitory activity | CCCC(CCC)C(=O)O [valproate] |
| exhibited nCDase inhibitory activity | anacardamate |
| nCDase inhibitory activity | CC(/C=C/C(=O)NO)=C\[C@@H](C)C(=O)c1ccc(N(C)C)cc1 [Trichostatin A] |
